# Source: patent EP1144368B1, “ACETYLENIC ALPHA-AMINO ACID-BASED SULFONAMIDE HYDROXAMIC ACID TACE INHIBITORS” (priority 1999, dated 2000)
# Counter-ions that a name gives are not always drawn. Like-named read-outs stand apart in the source and are kept apart here.
# Columns and labels:
# MMP-1 = target: T1, MMP-1 (Homo sapiens, UniProt P03956); assay: MMP-1 inhibition (thiopeptide or fluorescent peptide substrate); assay type: biochemical
# T1 sequence (P03956 100-469): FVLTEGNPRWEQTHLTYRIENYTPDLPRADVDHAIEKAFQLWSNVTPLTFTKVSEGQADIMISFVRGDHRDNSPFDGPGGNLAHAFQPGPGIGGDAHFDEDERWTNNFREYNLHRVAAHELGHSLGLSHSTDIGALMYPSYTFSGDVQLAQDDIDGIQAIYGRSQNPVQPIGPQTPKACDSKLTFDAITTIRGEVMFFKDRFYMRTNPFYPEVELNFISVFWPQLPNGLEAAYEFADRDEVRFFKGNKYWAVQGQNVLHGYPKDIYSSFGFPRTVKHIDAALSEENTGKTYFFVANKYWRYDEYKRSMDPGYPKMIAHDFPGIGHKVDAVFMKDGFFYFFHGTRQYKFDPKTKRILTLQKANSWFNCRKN
# MMP-9 = MMP-9 (Homo sapiens, UniProt P14780); assay: MMP-9 inhibition (thiopeptide or fluorescent peptide substrate); assay type: biochemical
# MMP-13 = MMP-13 (Homo sapiens, UniProt P45452); assay: MMP-13 inhibition (thiopeptide or fluorescent peptide substrate); assay type: biochemical
# TACE = TACE (Homo sapiens, UniProt P78536); assay: TACE inhibition (fluorescent peptidyl substrate); assay type: biochemical; settings: read-out: TACE IC50
# THP-1 cells = assay: THP-1 Soluble Protein Assay (LPS-stimulated; ELISA of TNF-a, TNF-R p75/80, TNF-R p55/60, IL-8); assay type: cell-based, human; settings: for inhibition at 3 µM: Homo sapiens
# [1] = THP-1, read-out: THP % inhibition @ 3 µM, 3 µM
# Sequence of MMP-9 (P14780 107-707 limits assumed): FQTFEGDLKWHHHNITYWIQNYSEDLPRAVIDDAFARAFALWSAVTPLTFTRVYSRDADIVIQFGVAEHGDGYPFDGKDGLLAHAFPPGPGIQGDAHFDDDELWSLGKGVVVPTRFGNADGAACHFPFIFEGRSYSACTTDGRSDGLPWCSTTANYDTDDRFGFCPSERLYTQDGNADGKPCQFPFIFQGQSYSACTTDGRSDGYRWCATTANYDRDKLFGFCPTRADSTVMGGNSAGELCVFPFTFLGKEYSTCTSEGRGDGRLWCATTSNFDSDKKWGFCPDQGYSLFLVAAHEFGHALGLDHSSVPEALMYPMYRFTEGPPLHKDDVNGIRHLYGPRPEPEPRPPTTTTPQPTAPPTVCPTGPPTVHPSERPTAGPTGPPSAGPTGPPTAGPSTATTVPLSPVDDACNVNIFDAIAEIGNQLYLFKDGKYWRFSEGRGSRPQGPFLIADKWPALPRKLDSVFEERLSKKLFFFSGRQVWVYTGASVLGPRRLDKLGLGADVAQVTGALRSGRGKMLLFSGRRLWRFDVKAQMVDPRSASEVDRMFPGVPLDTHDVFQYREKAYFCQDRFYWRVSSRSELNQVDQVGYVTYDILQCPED
# Sequence of TACE (P78536 215-824): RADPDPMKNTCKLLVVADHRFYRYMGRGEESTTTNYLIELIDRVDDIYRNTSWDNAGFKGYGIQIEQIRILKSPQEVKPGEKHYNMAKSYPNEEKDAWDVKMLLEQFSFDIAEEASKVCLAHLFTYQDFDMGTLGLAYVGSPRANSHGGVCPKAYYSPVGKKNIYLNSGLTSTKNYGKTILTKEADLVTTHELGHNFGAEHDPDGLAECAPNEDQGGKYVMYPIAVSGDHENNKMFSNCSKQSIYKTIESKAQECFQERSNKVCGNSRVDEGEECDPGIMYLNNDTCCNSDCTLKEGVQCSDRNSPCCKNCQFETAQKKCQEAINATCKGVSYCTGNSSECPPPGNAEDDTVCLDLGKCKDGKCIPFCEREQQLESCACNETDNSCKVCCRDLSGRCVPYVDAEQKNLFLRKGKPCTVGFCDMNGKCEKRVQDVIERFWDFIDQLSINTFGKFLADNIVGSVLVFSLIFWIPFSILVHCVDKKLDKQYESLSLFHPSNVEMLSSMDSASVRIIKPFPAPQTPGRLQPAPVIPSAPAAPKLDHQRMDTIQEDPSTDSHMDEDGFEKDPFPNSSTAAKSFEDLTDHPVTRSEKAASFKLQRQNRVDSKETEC
Compound,IC50 (MMP-1) [nM],IC50 (MMP-9) [nM],IC50 (MMP-13) [nM],IC50 (TACE) [nM],IC50 (TACE; Tables 11-14) [nM],THP % inhibition @ 3 µM (THP-1 cells) [%],"inhibition at 3 µM (THP-1 cells; THP-1, read-out: THP % inhibition @ 3 µM) [%]",inhibition at 3 µM (THP-1 cells; [1]) [%],"inhibition at 3 µM (THP-1 cells; THP-1, 3 µM, read-out: THP % Inhibition @ 3µM) [%]"
"CC#CCOc1ccc(S(=O)(=O)N(CC(=O)NO)Cc2cccnc2)cc1 [Example 23, 2-[(4-But-2-ynyloxy-benzenesulfonyl)-pyridin-3-ylmethyl-amino]-N-hydroxy-acetamide hydrochloride]",1160,40,20,–,–,–,63,–,–
"CC#CCOc1ccc(S(=O)(=O)N(C)[C@@H](C)C(=O)NO)cc1 [Example 107, (2S)-2-[(4-But-2-ynyloxy-benzenesulfonyl)-methyl-amino]-N-hydroxy-propionamide]",330,68,–,4.5,–,–,–,–,–
"CC#CCOc1ccc(S(=O)(=O)N(CC#CCN(CC)CC)C(C(=O)NO)C(C)C)cc1 (stereo not drawn) [Example 126, 2-{{[4-(2-Butynyloxy)phenyl]sulfonyl}[4-(diethylamino)-2-butynyl]amino}-N-hydroxy-3-methylbutanamide]",212,149,36,73,–,–,–,93,–
"CN(CC(=O)NO)S(=O)(=O)c1ccc(OCC#Cc2ccc(Cl)cc2)cc1 [Example 132, 2-[[(4-{[3-(4-Chlorophenyl)-2-propynyl]oxy}phenyl)sulfonyl](methyl)amino]-N-hydroxyacetamide]",> 10000,2370,1120,1100,–,–,–,27,–
"C#CCNc1ccc(S(=O)(=O)N(C)CC(=O)NO)cc1 [Example 133, N-Hydroxy-2-(methyl{[4-(prop-2-ynylamino)phenyl]sulfonyl}amino)acetamide]",–,1510,751,120,–,–,–,8,–
"CC#CCOc1ccc(S(=O)(=O)N(C)C(CSCc2cccnc2)C(=O)NO)cc1 (stereo not drawn) [Example 155, 2-[(4-But-2-ynyloxy-benenesulfonyl)-methyl-amino]-N-hydroxy-3-(pyridin-3-ylmethylsulfanyl)-butyramide]",–,14,–,–,–,–,–,93,–

# The remaining compounds from weak to strong by IC50 (MMP-9), led by results:
IC50 (MMP-1) [nM],IC50 (MMP-9) [nM],IC50 (MMP-13) [nM],IC50 (TACE) [nM],IC50 (TACE; Tables 11-14) [nM],Compound,THP % inhibition @ 3 µM (THP-1 cells) [%],"inhibition at 3 µM (THP-1 cells; THP-1, read-out: THP % inhibition @ 3 µM) [%]",inhibition at 3 µM (THP-1 cells; [1]) [%],"inhibition at 3 µM (THP-1 cells; THP-1, 3 µM, read-out: THP % Inhibition @ 3µM) [%]"
4950,111,84,–,–,"CC#CCSc1ccc(S(=O)(=O)N(C)CC(=O)NO)cc1 [Example 134, 2-[(4-But-2-ynylthiophenylsulfonyl)methylamino]-N-hydroxyacetamide]",–,–,14,–
–,107,–,–,59,"CC#CCOc1ccc(S(=O)(=O)N2CC(CNC(=O)OC(C)(C)C)SC(C)(C)C2C(=O)NO)cc1 [Example 274, tert-Butyl{(2S,5S)-4-{[4-(2-butynyloxy)phenyl]sulfonyl}-5-[(hydroxyamino)carbonyl]-6,6-dimethylthiomorpholinyl}methylcarbamate]",84,–,–,–
–,64,–,–,–,"CC#CCOc1ccc(S(=O)(=O)N2C[C@H](CN)SC(C)(C)[C@@H]2C(=O)NO)cc1 [Example 276, (3S,6S)-Cis-6-(aminomethyl)-4-{[4-(2-butynyloxy)phenyl]sulfonyl}-N-hydroxy-2,2-dimethyl-3-thiomorpholinecarboxamide hydrochloride]",–,–,–,94
25,20,9.3,51,–,2-[(4-But-2-ynyloxy-benenesulfonyl)-methyl-amino]-N-hydroxy-3-methyl-3-ethylsulfanyl-butyramide [Example 150],86,–,–,–
–,11,4.5,4.8,–,"CC#CCOc1ccc(S(=O)(=O)N(C)C(CSCc2ccccc2)C(=O)NO)cc1 (stereo not drawn) [Example 156, 3-(Benzylthio) -2-[[[4-(2-butynyloxy)phenyl]sulfonyl]methylamino] -N-hydroxypropanamide]",–,–,75,–
18,7.1,2.5,109,–,CC#CCOc1ccc(S(=O)(=O)N(C)C(C(=O)NO)C(C)(C)SCCN2CCCC2C(=O)OC)cc1 (stereo not drawn) [Example 145],–,–,83,–
25,4.8,5.2,88,–,CC#CCOc1ccc(S(=O)(=O)N(C)C(C(=O)NO)C(C)(C)SCCCN(CC)CC)cc1 (stereo not drawn) [Example 148],–,–,87,–
